Data taken from PubChem BioAssay (NCI).
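Results reflect a 48-hour exposure of cells in 96-well plates to compound at five concentrations. GI50 marks 50% less growth. At the TGI there is no net growth.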

What was measured:
Assay in all cases: NCI anticancer screen, dose series, 48 h
A549 NSCLC = system: A549 NSCLC
A498 renal = system: A498 renal
UO-31 renal = system: UO-31 renal
TK-10 renal = system: TK-10 renal
KM12 colon = system: KM12 colon
PC-3 prostate = system: PC-3 prostate
NCI-H460 lung = system: NCI-H460 lung
HCT-116 colon = system: HCT-116 colon
SN12C renal = system: SN12C renal
BT-549 breast = system: BT-549 breast
HL-60(TB) leukemia = system: HL-60(TB) leukemia
DU-145 prostate = system: DU-145 prostate
HOP-92 NSCLC = system: HOP-92 NSCLC
MALME-3M melanoma = system: MALME-3M melanoma
MDA-MB-435 = system: MDA-MB-435
SK-OV-3 ovarian = system: SK-OV-3 ovarian
OVCAR-8 ovarian = system: OVCAR-8 ovarian
HT29 colon = system: HT29 colon
SR leukemia = system: SR leukemia
HOP-62 NSCLC = system: HOP-62 NSCLC
SK-MEL-5 melanoma = system: SK-MEL-5 melanoma
SF-539 CNS = system: SF-539 CNS
IGROV1 ovarian = system: IGROV1 ovarian
SNB-19 CNS = system: SNB-19 CNS
NCI-H226 lung = system: NCI-H226 lung
MOLT-4 leukemia = system: MOLT-4 leukemia
U251 CNS = system: U251 CNS
HCC-2998 colon = system: HCC-2998 colon

CCCCNNC(=O)c1ccc(-c2cccc(F)c2F)cc1
TGI (A549 NSCLC): 18.4 µM
GI50 (A498 renal): 1.04 µM
TGI (A498 renal): 2.92 µM
GI50 (UO-31 renal): 1.78 µM
TGI (UO-31 renal): 7.25 µM
GI50 (TK-10 renal): 0.959 µM
TGI (TK-10 renal): 7.9 µM
GI50 (KM12 colon): 4.04 µM
TGI (KM12 colon): 16.1 µM
GI50 (PC-3 prostate): 3.56 µM
TGI (PC-3 prostate): 27.4 µM
GI50 (NCI-H460 lung): 2.71 µM
TGI (NCI-H460 lung): 21.3 µM
GI50 (HCT-116 colon): 2.57 µM
TGI (HCT-116 colon): 11.4 µM
GI50 (SN12C renal): 4.29 µM
TGI (SN12C renal): 79.9 µM
GI50 (BT-549 breast): 5.11 µM
TGI (BT-549 breast): > 100 µM
GI50 (HL-60(TB) leukemia): 1.07 µM
TGI (HL-60(TB) leukemia): 16.1 µM
GI50 (DU-145 prostate): 2.43 µM
TGI (DU-145 prostate): 43.8 µM
GI50 (HOP-92 NSCLC): 1.04 µM
TGI (HOP-92 NSCLC): 5.67 µM
GI50 (MALME-3M melanoma): 0.613 µM
TGI (MALME-3M melanoma): 5.28 µM
GI50 (MDA-MB-435): 2.23 µM
TGI (MDA-MB-435): 8.25 µM
GI50 (SK-OV-3 ovarian): 4.12 µM
TGI (SK-OV-3 ovarian): 42.5 µM
GI50 (OVCAR-8 ovarian): 1.49 µM
TGI (OVCAR-8 ovarian): > 100 µM
GI50 (HT29 colon): 2.58 µM
TGI (HT29 colon): > 100 µM
GI50 (SR leukemia): 1.77 µM
TGI (SR leukemia): 57.3 µM
GI50 (HOP-62 NSCLC): 3.09 µM
TGI (HOP-62 NSCLC): > 100 µM
GI50 (SK-MEL-5 melanoma): 1.8 µM
TGI (SK-MEL-5 melanoma): 3.71 µM
GI50 (SF-539 CNS): 3.19 µM
TGI (SF-539 CNS): 65.6 µM
GI50 (IGROV1 ovarian): 2.02 µM
TGI (IGROV1 ovarian): 11.1 µM
GI50 (SNB-19 CNS): 3.23 µM
TGI (SNB-19 CNS): 19.8 µM
GI50 (NCI-H226 lung): 2.58 µM
TGI (NCI-H226 lung): 17.1 µM
GI50 (MOLT-4 leukemia): 2.49 µM
TGI (MOLT-4 leukemia): > 100 µM
GI50 (U251 CNS): 2.58 µM
TGI (U251 CNS): 15.2 µM
GI50 (HCC-2998 colon): 1.48 µM
TGI (HCC-2998 colon): 4.11 µM
